Measured values published in patent US12326385B2, “Cell-permeable fluorogenic fluorophores” (MAX-PLANCK-GESELLSCHAFT ZUR FÖRDERUNG DER WISSENSCHAFTEN E. …, priority 2018, dated 2025).
Marks after values point to notes of the source that are not given here.

What was measured:
[1] = UV-Vis and fluorescence spectroscopy of free dye or probe in buffer or SDS; type: physicochemical
Protocol: UV-Vis and Fluorescence Spectroscopy
Spectroscopy was performed using 96-well plate (Thermo Fisher) with optical bottom. All measurements were taken at ambient temperature (25±2° C.). Absorption and fluorescence spectra were recorded on Spark® microplate reader (Tecan). Maximum absorption wavelength (λabs), and maximum emission wavelength (λem) were taken in 10 mM HEPES, pH 7.3 buffer unless otherwise noted; reported values for ε are averages (n=3). Normalized spectra are shown for clarity.
(§1) SDS (10% in 10 mM HEPES) was added with dilution of 100 folds as a control group. Absorbance and fluorescence measurements were performed in 96-well plate (Thermos Fisher) with optical bottom.

[2] = UV absorbance spectra in water-dioxane mixtures (D50); type: physicochemical; conditions: dioxane-H2O mixture (v/v: 90/10-10/90), dielectric constant at half-maximal zwitterion absorbance
Description: The inventors' efforts to improve the permeability and fluorogenicity of rhodamine derivatives for live-cell imaging focused on increasing the propensity of rhodamines to form the spirocyclic, non-fluorescent form without affecting the spectroscopic properties of the parental molecule. The inventors initially considered replacing the carboxylic acid responsible for formation of the spirolactone with an amide. However, such rhodamine derivatives have been reported to strongly favor spirolactams at physiological pH, making them unsuitable for live-cell imaging. The inventors therefore attempted to destabilize the spirolactam by attaching different electron-withdrawing groups to the underlying amides. Specifically, the inventors converted 6-carboxytetramethylrhodamine (6-TAMRA), a widely used fluorophore with good photophysical properties, into the corresponding acyl cyanamide (132), acyl sulfonamide (133) and acyl sulfamide (134 and 135), (FIG. 32c). The acyl cyanamide of rhodamine B was previously reported to exist as a fluorescent zwitterion at physiological pH. Acyl sulfonamides and acyl sulfamides are used in medicinal chemistry as anionic pharmacophores. Amides 132-135 were prepared in three simple steps from commercially available 6-TAMRA (FIG. 32c). To investigate the propensity of these amides to form the corresponding spirolactams, the inventors measured their absorbance spectra in water-dioxane mixtures with […]. The equilibrium between the zwitterionic and spirocyclic form can then be characterized by the D50 value, which is defined as the dielectric constant at which absorbance of the fluorescent zwitterion is decreased by half compared to the highest recorded absorbance value measured in dioxane-water mixtures. […] In comparison, the D50 value of TAMRA is around 10 showing that in aqueous solution TAMRA exists predominantly in its open form and TAMRA-based probes are usually not fluorogenic. The measured D50 values of amides 132-135 ranged from 32 to around 60 (FIG. 32d), which indicates the potential of these fluorophores for the generation of permeable and fluorogenic probes. […] The possibility to tune the equilibrium between the open and closed form of the fluorophore by varying the substituents on the amide is an important feature of this approach.
Measurements of UV Absorbance Spectra in Water-Dioxane Mixtures
Solutions of 5 μM Rhodamine B, RhB-CH3 (201, Z=CH3), RhB-Ben (201, Z=CH2Ph), RhB-CN (201, Z=CN), RhB-SCH3 (115), RhB-SNH2 (116), RhB-SNMe2 (117), RhB-CONH2 (118), WS1-SCF3, (119) WS1-SCH3 (120), WS1-CN (121), WS1-SNH2 (122), WS1-SO (123), WS1-UREA (124) in water-dioxane mixtures containing 10%, 20%, 30%, 40%, 50%, 60%, 70%, 80% and 90% of dioxane (by volume) were prepared. The absorbance spectra were recorded using a Spark® microplate reader (Tecan). The spectra were integrated from 400 to 700 nm for Rhodamine B-based fluorophores and from 350 to 750 nm for WS1-based fluorophores using the software Prism 7. Normalized integrals were plotted against dielectric constant of water-dioxane mixture.

SNAP-Halo-tag = experiment: Increase in absorbance and fluorescence on binding to SNAP-HaloTag protein in vitro; type: biochemical; conditions: for Φ / ε^protein / λabs / λem: binding with SNAP-Halo-tag; for F/F0: ± s.e.m.
Protocol: Measurement of Increase in Absorbance and Fluorescence.
SNAP-HaloTag protein were used as a 85 μM-200 μM solution in 75 mM NaCl, 50 mM TRIS-HCl, pH 7.4 with 50% v/v glycerol (TBS-glycerol). SNAPTag and HaloTag based fluorogenic probes were diluted to 1.0-2.0 μM in 10 mM HEPES, pH 7.3. Then an aliquot of SNAPTag/HaloTag protein (1.5-2.0 equiv) was added and the resulting mixture was incubated until consistent absorbance signal was observed (˜60 min).
as §1

[3] = system: U2OS FlpIn Halo-SNAP-NLS expressing cells; experiment: No-wash live-cell confocal imaging, nuclear versus cytosol signal; type: cell-based; conditions: for Fnuc./Fcyt.: average ratio between nuclear signal (U2OS FlpIn Halo-SNAP-NLS expressing cells) and cytosol signal (normal U2OS cell), ± s.e.m.; for nuclei to cytosol signal ratio (Fnuc/Fcyt): no-wash live-cell imaging, U2OS cells, 250 nM for MaP555-SNAP and MaP700-Halo; for time to staining / saturation / completion of labeling: nuclear localized HaloTag in U2OS cells, 250 nM for MaP510-Halo and MaP700-Halo
Description: Self-labeling protein tags such as SNAP-tag and HaloTag are an efficient approach to attach synthetic fluorophores to proteins in living cells. The main challenge when using these tags for live-cell imaging is the low cell permeability of most fluorescent probes used for labeling and high background signal resulting from their unspecific binding. SNAP-tag fusion proteins can be specifically labeled with different fluorophores using appropriate O^6-benzlyguanine derivatives. A 6-TAMRA based probe (150) for SNAP-tag has been previously introduced for live-cell imaging, but its low cell-permeability and lack of fluorogenicity requires the use of high concentrations (5 μM) and repeated washing steps to remove excess and non-specifically bound probe. To address these problem, the inventors coupled fluorophores 132-135 to O^6-benzylguanine to obtain probes 152, 154, 156, and 158. […] The inventors then examined the performance of probes 150, 152, 154, 156, and 158 in live-cell imaging, in which U2OS cells stably expressing a nuclear localized SNAP-Halo fusion protein were co-cultured with regular U2OS cells not expressing any protein tags. […] Furthermore, the kinetics of labeling of nuclear localized SNAP-tag with MaP555-SNAP were much faster than those of control […]. The inventors then prepared the corresponding 6-TAMRA-based probes 151, 153, 155, 157, and 159 for HaloTag. As for SNAP-tag, the probe with the largest enhancement in absorbance (16-fold) and fluorescence intensity (35-fold) in in vitro assays was based on the N,N-dimethylsulfamide derivative 159 (abbreviated as MaP555-Halo in the following). […] The excellent performance of MaP555-SNAP and MaP555-Halo in live-cell imaging experiments support the inventors' assumption that establishing a dynamic equilibrium between the fluorescent zwitterion and the more hydrophobic spirolactam enables the generation of highly cell-permeable and fluorogenic probes for live-cell imaging.
Generation of U2OS FlpIn Halo-SNAP-NLS Cell Lines
The Flp-In™ System (ThermoFisher Scientific) was used to generated U2OS FlpIn Halo-SNAP-NLS expressing cells. pcDNA5-FRT-Halo-SNAP-NLS and pOG44 were co-transfected into the host cell line U2OS FLpIn (Malecki et al. Molecular and Cellular Biology 26, 4642 (2006)). Homologous recombination between the FRT sites in pcDNA5-FRT-Halo-SNAP-NLS and on the host cell chromosome, catalysed by the Flp recombinase expressed from pOG44, produced the U2OS FlpIn Halo-SNAP-NLS stably expressing cells.
Live-Cell Confocal Imaging
U2OS FlpIn Halo-SNAP-NLS expressing cells were grown in 96-well plate (Thermos Fisher) with optical bottom at 37° C. in a humidified 5% (vol/vol) CO2 environment. 50-500 nM probes and 2 μM verapamil were added and incubated for 1 h in DMEM media (Evrogen) containing 10% FBS. The cells were directly used to image without washing. Meanwhile, another group was imaged after being washed 2 times for 5 min with 1× phosphate buffered saline (PBS, pH 7.4) and DMEM supplemented with 10% FBS. Imaging was performed using Leica TCS SP8 confocal microscope. TMR- and Rhodamine B—, and Rhodamine 110-based probes were excited at 540 nm and the fluorescence signal was collected from 560-700 nm. Semi-Rhodamine-based probes were excited at 650 nm and the fluorescence signal was […] from 670-760 nm. Images were processed with Fiji (http://fiji.sc/wiki/index.php/Fiji) to obtain MIP (maximum intensity projections)

[4] = 0.1% SDS in HEPES buffer (pH 7.3)
[5] = ratio of fluorescence intensities at 635 nm in the presence and absence of SNAP-Halo-tag
[6] = upon binding to HaloTag, in vitro

SMILES | Φ [1, 4] | Φ ([1]; HEPES buffer (pH 7.3)) | ε ([1]; HEPES buffer (pH 7.3)) | λabs ([1]; HEPES buffer (pH 7.3)) [nm] | λem ([1]; HEPES buffer (pH 7.3)) [nm] | D50 [2] | also measured
CN(C)c1ccc2c(-c3cc(C(=O)[O-])ccc3C(=O)O)c3ccc(=[N+](C)C)cc-3oc2c1 [6-TAMRA, 6-carboxytetramethylrhodamine, reference compound] | 0.39 | 0.43 | 84,000^a M^−1cm^−1 | 550 | 578 | 12^d | D50 ([2]; listed as TAMRA): around 10
Cl.N=c1ccc2c(-c3ccccc3C(=O)O)c3ccc(N)cc3oc-2c1 [R110, Rhodamine 110, reference compound] | – | – | – | – | – | 15 | –
CN1CCc2cc3c(cc21)[Si](C)(C)c1cc2c(cc1C31c3cc(C(=O)O)ccc3C(=O)N1C#N)CCN2C [compound 140] | – | – | 8,200^a M^−1cm^−1 | 698 | 720 | >75^d | –
CN(C)c1ccc2c(c1)C(C)(C)c1cc(N(C)C)ccc1C21c2cc(C(=O)NCCOCCOCCCCCCCl)ccc2C(=O)N1S(N)(=O)=O [compound 165] | – | – | 440 M⁻¹ cm⁻¹ | – | – | – | ε^SDS [1, 4]: 8,300^c M^−1cm^−1; Φ (SNAP-Halo-tag): 0.58^b/—; ε^protein (SNAP-Halo-tag): 101,000 M^−1cm^−1; λabs (SNAP-Halo-tag): 618 nm; λem (SNAP-Halo-tag): 635 nm; F/F0 (SNAP-Halo-tag; [5]): 611 ± 42^e; Fnuc./Fcyt. [3]: 30 ± 4.5^f
CN1CCc2cc3c(cc21)[Si](C)(C)c1cc2c(cc1C31c3cc(C(=O)NCCOCCOCCCCCCCl)ccc3C(=O)N1C#N)CCN2C [compound 168] | 0.18 | – | 340 M⁻¹ cm⁻¹ | – | – | – | ε^SDS [1, 4]: 12,000^c M^−1cm^−1; Φ (SNAP-Halo-tag): 0.24; ε^protein (SNAP-Halo-tag): 52,000 M^−1cm^−1; λabs (SNAP-Halo-tag): 700 nm; λem (SNAP-Halo-tag): 720 nm; F/F0 (SNAP-Halo-tag; ratio of fluorescence intensities at 720 nm in the presence and absence of SNAP-Halo-tag): 650 ± 5.8^e; increase in absorbance (SNAP-Halo-tag; [6]): 150 fold; increase in fluorescence intensity (SNAP-Halo-tag; [6]): 650 fold; Fnuc./Fcyt. [3]: 47 ± 3.4^f; nuclei to cytosol signal ratio (Fnuc/Fcyt) [3]: 47; time to staining / saturation / completion of labeling [3]: ≤ 10 min

More lines, main results first:

Φ [1, 4] | Φ ([1]; HEPES buffer (pH 7.3)) | ε ([1]; HEPES buffer (pH 7.3)) | λabs ([1]; HEPES buffer (pH 7.3)) [nm] | λem ([1]; HEPES buffer (pH 7.3)) [nm] | D50 [2] | SMILES | also measured
0.69 | 0.68 | 74,000^a M^−1cm^−1 | 502 | 526 | 70^d | CN(C)S(=O)(=O)N1C(=O)c2ccc(C(=O)O)cc2C12c1ccc(N)cc1Oc1cc(N)ccc12 [compound 21] | D50 ([2]; listed as MaP510): 70
0.45^a/0.45^c | 0.45^a/0.45^c | 89,000^a M^−1cm^−1 | 552 | 580 | 32^d | CN(C)c1ccc2c(c1)Oc1cc(N(C)C)ccc1C21c2cc(C(=O)O)ccc2C(=O)N1C#N [compound 132] | –
0.46 | 0.43 | 89,000^a M^−1cm^−1 | 553 | 580 | 44^d | CN(C)c1ccc2c(c1)Oc1cc(N(C)C)ccc1C21c2cc(C(=O)O)ccc2C(=O)N1S(C)(=O)=O [compound 133] | –
0.44^a/0.44^c | 0.44^a/0.44^c | 83,000^a M^−1cm^−1 | 552 | 580 | 57^d | CN(C)c1ccc2c(c1)Oc1cc(N(C)C)ccc1C21c2cc(C(=O)O)ccc2C(=O)N1S(N)(=O)=O [compound 134] | –
0.43 | 0.4 | 88,000^a M^−1cm^−1 | 553 | 580 | 58^d | CN(C)c1ccc2c(c1)Oc1cc(N(C)C)ccc1C21c2cc(C(=O)O)ccc2C(=O)N1S(=O)(=O)N(C)C [compound 135] | –
– | – | 260 M⁻¹ cm⁻¹ | – | – | – | CN(C)c1ccc2c(c1)C(C)(C)c1cc(N(C)C)ccc1C21c2cc(C(=O)NCCOCCOCCCCCCCl)ccc2C(=O)N1S(=O)(=O)N(C)C [compound 167] | ε^SDS [1, 4]: 7,200^c M^−1cm^−1; Φ (SNAP-Halo-tag): 0.61^b/—; ε^protein (SNAP-Halo-tag): 107,000 M^−1cm^−1; λabs (SNAP-Halo-tag): 618 nm; λem (SNAP-Halo-tag): 635 nm; F/F0 (SNAP-Halo-tag; [5]): 1000 ± 44^e; increase in fluorescence intensity (SNAP-Halo-tag; [6]): 1000 fold; Fnuc./Fcyt. [3]: 58 ± 3.9^f; nuclei to cytosol signal ratio (Fnuc/Fcyt) [3]: 58; time to staining / saturation / completion of labeling [3]: ≤ 5 min
